Assay results: publication PMC11062922 (Nature Chemical Biology, 2023)
Like-named read-outs stand apart in the source and are kept apart here.

How the values were obtained:
CLK4 = target: T1, CLK4 (Homo sapiens, UniProt Q9HAZ1); assay: Kinobeads two-dose competition binding: CLK4; conditions: for CATDS: target CLK4;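 for CATDS: target engagement share of this target among all targets at its Kdapp concentration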
T1 construct: to maximize the representation of endogenous proteins; endogenous in cells

ADCK1 = target: T2, ADCK1 (Homo sapiens, UniProt Q86TW2); assay: Kinobeads competition binding: ADCK1; conditions: target ADCK1
T2 construct: endogenous in cells
T2 sequence (Q86TW2 1-530): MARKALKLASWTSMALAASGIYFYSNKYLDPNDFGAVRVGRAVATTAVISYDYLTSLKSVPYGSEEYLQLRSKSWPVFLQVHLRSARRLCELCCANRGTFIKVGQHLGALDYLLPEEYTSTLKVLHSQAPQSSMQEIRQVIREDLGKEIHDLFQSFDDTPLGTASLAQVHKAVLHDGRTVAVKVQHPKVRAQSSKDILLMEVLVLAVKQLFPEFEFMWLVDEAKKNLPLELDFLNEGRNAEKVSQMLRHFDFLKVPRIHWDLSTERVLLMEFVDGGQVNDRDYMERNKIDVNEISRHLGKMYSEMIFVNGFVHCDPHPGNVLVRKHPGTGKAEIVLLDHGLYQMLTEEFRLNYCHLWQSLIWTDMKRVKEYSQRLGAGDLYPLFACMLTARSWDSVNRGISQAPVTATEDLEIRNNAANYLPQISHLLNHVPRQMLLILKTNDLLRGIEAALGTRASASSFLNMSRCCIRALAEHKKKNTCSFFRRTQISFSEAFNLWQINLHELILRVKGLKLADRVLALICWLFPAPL
Text: Supplement 41589_2023_1459_MOESM4_ESM.xlsx, sheet "CATDS matrix" | column: ADCK1

CAMK2G = target: T3, CAMK2G (Homo sapiens, UniProt Q13555); assay: Kinobeads competition binding: CAMK2G; conditions: target CAMK2G
T3 construct: endogenous in cells

CSK = target: T4, CSK (Homo sapiens, UniProt P41240); assay: Kinobeads competition binding: CSK; conditions: target CSK
T4 construct: endogenous in cells

DCK = assay: Kinobeads competition binding: DCK; design: species or system human; conditions: target DCK;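 note: share of total target engagement due to this protein at one drug concentration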
FLT4 = target: T5, FLT4 (Homo sapiens, UniProt P35916); assay: Kinobeads competition binding: FLT4; conditions: target FLT4;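 note: share of total target engagement due to this protein at one drug concentration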
T5 construct: endogenous in cells

HCK = target: T6, HCK (Homo sapiens, UniProt P08631); assay: Kinobeads competition binding: HCK; conditions: target HCK
T6 construct: endogenous in cells
Text: Supplement 41589_2023_1459_MOESM4_ESM.xlsx, sheet "CATDS matrix" | column: HCK

IGF1R = assay: Kinobeads competition binding: IGF1R; design: species or system human; conditions: target IGF1R;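 note: selectivity score: engagement of this protein divided by summed engagement of all targets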
IRAK1 = assay: Kinobeads competition binding: IRAK1; design: species or system human; conditions: target IRAK1
MARK3 = assay: Kinobeads competition binding: MARK3; design: species or system human; conditions: target MARK3
PIP4K2C = target: T7, PIP4K2C (Homo sapiens, UniProt Q8TBX8); assay: Kinobeads competition binding: PIP4K2C; conditions: target PIP4K2C
T7 construct: a mixture of lysates from five cancer cell lines; endogenous in cells
T7 sequence (Q8TBX8 1-421): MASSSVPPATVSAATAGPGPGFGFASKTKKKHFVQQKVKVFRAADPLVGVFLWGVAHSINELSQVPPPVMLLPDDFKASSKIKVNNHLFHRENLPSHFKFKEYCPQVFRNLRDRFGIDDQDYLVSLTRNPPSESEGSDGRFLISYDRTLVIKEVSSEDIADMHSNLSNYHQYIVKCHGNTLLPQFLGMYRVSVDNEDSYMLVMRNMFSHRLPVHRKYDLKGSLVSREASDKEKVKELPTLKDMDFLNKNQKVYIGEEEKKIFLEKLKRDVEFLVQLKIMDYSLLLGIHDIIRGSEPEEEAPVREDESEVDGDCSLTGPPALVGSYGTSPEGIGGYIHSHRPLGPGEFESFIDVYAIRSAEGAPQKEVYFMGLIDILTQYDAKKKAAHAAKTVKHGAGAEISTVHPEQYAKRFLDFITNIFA
Text: Supplement 41589_2023_1459_MOESM4_ESM.xlsx, sheet "CATDS matrix" | column: PIP4K2C

PKN2 = target: T8, PKN2 (Homo sapiens, UniProt Q16513); assay: Kinobeads competition binding: PKN2; conditions: target PKN2;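 note: share of total target engagement due to this protein at one drug concentration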
T8 construct: a mixture of lysates from five cancer cell lines; endogenous in cells
Text: Supplement 41589_2023_1459_MOESM4_ESM.xlsx, sheet "CATDS matrix" | column: PKN2

T3 sequence (Q13555 whole entry): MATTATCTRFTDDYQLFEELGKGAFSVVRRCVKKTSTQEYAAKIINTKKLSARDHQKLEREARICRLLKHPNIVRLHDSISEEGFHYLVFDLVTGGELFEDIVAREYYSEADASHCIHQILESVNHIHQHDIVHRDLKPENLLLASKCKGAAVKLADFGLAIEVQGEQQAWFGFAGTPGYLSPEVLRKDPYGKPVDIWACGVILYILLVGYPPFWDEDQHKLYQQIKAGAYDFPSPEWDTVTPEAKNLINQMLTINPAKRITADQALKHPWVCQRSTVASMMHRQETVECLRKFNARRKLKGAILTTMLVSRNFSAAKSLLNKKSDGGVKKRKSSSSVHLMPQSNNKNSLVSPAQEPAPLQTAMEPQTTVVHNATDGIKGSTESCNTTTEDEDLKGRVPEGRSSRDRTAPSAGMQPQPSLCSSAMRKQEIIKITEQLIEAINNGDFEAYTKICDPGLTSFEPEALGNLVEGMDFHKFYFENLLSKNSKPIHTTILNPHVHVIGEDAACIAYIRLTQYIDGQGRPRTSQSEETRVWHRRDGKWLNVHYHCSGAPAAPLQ
T8 sequence (Q16513 whole entry): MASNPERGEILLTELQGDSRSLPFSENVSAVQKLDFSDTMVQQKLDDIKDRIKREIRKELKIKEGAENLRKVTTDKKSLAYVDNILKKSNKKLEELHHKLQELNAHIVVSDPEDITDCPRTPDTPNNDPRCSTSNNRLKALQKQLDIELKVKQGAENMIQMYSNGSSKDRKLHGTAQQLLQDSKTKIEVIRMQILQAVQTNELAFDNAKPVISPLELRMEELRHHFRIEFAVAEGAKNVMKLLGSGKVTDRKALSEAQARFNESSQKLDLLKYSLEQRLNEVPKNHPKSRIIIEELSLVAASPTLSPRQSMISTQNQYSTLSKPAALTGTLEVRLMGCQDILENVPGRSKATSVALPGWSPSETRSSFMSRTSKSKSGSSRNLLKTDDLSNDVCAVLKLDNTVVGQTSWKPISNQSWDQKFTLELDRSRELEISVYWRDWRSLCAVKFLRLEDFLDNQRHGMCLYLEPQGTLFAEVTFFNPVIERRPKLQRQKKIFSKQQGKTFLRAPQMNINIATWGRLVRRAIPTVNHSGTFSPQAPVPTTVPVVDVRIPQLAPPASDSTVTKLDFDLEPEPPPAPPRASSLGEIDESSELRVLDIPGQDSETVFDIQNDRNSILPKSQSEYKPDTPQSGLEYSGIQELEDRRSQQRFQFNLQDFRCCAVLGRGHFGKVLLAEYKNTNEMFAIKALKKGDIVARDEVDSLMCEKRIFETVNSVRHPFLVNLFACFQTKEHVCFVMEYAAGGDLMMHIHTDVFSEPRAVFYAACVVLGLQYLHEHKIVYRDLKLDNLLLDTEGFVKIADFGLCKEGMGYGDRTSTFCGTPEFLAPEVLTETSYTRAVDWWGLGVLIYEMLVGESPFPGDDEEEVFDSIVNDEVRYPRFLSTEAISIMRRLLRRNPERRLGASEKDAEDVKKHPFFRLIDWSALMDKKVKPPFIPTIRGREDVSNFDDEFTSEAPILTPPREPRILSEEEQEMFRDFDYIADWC
T5 sequence (P35916 25-1363): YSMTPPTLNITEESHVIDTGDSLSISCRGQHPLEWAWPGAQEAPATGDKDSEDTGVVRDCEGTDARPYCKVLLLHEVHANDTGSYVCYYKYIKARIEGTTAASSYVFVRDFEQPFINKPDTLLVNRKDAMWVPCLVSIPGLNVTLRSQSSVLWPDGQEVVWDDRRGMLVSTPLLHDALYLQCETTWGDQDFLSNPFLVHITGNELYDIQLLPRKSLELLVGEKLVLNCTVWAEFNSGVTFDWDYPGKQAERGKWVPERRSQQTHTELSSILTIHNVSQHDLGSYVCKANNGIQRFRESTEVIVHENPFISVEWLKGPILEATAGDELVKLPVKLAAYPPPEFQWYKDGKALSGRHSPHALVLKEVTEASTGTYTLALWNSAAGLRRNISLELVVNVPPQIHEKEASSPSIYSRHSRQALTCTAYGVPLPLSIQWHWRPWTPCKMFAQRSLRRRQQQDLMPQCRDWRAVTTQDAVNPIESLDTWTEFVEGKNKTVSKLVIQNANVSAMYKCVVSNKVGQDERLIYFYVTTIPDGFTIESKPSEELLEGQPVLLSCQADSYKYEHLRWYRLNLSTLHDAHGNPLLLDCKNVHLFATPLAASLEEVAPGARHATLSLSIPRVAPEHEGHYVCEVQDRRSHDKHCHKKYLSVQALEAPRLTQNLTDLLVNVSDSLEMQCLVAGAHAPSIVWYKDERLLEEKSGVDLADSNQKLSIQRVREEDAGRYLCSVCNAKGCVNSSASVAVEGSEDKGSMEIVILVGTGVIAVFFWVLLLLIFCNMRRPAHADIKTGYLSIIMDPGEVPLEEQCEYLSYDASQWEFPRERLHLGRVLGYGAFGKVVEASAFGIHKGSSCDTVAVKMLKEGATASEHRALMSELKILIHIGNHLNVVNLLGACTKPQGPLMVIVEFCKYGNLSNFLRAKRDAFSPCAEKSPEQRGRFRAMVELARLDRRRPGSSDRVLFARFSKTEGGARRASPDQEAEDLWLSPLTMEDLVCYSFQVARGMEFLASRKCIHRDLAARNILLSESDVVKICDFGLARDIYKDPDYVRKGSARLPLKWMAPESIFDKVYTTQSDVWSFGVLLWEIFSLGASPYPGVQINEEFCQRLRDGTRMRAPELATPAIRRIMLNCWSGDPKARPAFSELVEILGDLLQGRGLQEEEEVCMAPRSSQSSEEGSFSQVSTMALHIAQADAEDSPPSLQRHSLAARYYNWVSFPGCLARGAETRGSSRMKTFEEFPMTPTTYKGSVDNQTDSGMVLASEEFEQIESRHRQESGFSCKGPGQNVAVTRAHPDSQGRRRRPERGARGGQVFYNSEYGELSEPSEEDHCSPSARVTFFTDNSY
T6 sequence (P08631 whole entry): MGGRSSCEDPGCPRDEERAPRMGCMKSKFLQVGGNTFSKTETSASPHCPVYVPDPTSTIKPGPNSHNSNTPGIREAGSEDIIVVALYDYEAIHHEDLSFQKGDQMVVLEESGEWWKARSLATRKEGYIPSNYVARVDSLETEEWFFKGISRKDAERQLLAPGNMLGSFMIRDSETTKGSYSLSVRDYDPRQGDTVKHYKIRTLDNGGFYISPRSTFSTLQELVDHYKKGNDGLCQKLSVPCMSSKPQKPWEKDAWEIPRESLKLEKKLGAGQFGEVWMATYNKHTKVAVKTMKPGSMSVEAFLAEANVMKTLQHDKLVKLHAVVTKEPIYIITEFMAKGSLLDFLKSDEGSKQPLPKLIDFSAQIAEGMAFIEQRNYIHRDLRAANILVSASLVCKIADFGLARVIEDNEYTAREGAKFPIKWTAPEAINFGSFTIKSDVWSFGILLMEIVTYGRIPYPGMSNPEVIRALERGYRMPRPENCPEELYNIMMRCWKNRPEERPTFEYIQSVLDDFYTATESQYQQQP
T4 sequence (P41240 whole entry): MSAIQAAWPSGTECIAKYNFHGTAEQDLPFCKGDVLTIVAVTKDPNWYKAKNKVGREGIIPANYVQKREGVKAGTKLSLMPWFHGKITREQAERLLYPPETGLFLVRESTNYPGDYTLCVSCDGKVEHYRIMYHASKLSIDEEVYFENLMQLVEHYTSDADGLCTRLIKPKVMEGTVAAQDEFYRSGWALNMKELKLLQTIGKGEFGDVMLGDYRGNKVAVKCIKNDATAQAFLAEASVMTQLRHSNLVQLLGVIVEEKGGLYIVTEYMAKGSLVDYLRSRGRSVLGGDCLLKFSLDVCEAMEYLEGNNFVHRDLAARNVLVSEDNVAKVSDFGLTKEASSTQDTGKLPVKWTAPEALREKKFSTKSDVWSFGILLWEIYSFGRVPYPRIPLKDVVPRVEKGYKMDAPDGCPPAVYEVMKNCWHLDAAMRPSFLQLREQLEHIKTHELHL
T1 sequence (Q9HAZ1 whole entry): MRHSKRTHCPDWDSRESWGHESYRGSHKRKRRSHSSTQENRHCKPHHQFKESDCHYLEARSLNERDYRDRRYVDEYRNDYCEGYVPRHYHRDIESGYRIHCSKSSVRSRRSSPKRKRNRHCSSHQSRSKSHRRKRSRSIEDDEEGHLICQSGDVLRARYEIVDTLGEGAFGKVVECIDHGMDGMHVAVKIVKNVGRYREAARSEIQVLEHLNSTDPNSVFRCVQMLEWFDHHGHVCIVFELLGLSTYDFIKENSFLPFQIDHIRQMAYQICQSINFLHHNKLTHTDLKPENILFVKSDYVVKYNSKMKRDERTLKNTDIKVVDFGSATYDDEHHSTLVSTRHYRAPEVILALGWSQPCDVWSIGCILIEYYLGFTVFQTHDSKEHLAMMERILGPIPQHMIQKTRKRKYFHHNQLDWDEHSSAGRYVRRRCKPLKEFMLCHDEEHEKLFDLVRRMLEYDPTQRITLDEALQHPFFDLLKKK

Nc1ncnc2[nH]c(-c3ccccc3)nc12 [AH5015_KCGS] gave a potency estimated from few doses (CLK4; Kinobeads two-dose, Drugmatrix - all 2, read-out: apparent Kd CLK4) of over 1000 nM, a CATDS (CLK4) of 0 and a CATDS (ADCK1) of 0. It also gave a CATDS (CAMK2G) of 0, a CATDS (CSK) of 0 and a CATDS (DCK) of 0. For the same compound, the CATDS (FLT4) was 0, the CATDS (HCK) was 0 and the CATDS (IGF1R) was 0. It also gave a CATDS (IRAK1) of 0, a CATDS (MARK3) of 0 and a CATDS (PIP4K2C) of 0. It also gave a CATDS (PKN2) of 0.

For CCN1CCN(Cc2ccc(Nc3ncc(F)c(-c4cc(F)c5nc(C)n(C(C)C)c5c4)n3)nc2)CC1 [Abemaciclib], the CATDS (ADCK1) was 0.02486, the CATDS (CAMK2G) was 0.09397 and the CATDS (CSK) was 0. It also gave a CATDS (DCK) of 0, a CATDS (FLT4) of 0 and a CATDS (HCK) of 0. It also gave a CATDS (IGF1R) of 0, a CATDS (IRAK1) of 0.02986 and a CATDS (MARK3) of 0. The CATDS (PIP4K2C) was 0 and the CATDS (PKN2) was 0.

Work on CN(C)C/C=C/C(=O)Nc1cc2c(Nc3ccc(F)c(Cl)c3)ncnc2cc1O[C@H]1CCOC1 [Afatinib] yielded a CATDS (CLK4) of 0, a CATDS (ADCK1) of 0 and a CATDS (DCK) of 0. It also gave a CATDS (HCK) of 0, a CATDS (PIP4K2C) of 0 and a CATDS (PKN2) of 0.

Compound CCc1cc2c(cc1N1CCC(N3CCOCC3)CC1)C(C)(C)c1[nH]c3cc(C#N)ccc3c1C2=O [Alectinib] has a CATDS (CLK4) of 0, a CATDS (ADCK1) of 0 and a CATDS (CAMK2G) of 0. For the same compound, the CATDS (CSK) was 0, the CATDS (DCK) was 0 and the CATDS (FLT4) was 0. It also gave a CATDS (HCK) of 0, a CATDS (IGF1R) of 0 and a CATDS (IRAK1) of 0. It also gave a CATDS (MARK3) of 0, a CATDS (PIP4K2C) of 0 and a CATDS (PKN2) of 0.

N#CC1(c2ccc(NC(=O)c3cccnc3NCc3ccncc3)cc2)CCCC1 [Apatinib] gave a CATDS (CLK4) of 0, a CATDS (ADCK1) of 0 and a CATDS (CAMK2G) of 0. The CATDS (CSK) was 0, the CATDS (DCK) was 0 and the CATDS (FLT4) was 0. For the same compound, the CATDS (HCK) was 0, the CATDS (IGF1R) was 0 and the CATDS (IRAK1) was 0. For the same compound, the CATDS (MARK3) was 0, the CATDS (PIP4K2C) was 0 and the CATDS (PKN2) was 0.

Work on C[C@]12O[C@H](C[C@]1(O)CO)n1c3ccccc3c3c4c(c5c6ccccc6n2c5c31)CNC4=O [Lestaurtinib] yielded a potency estimated from few doses (CLK4; read-out: Lestaurtinib Drugmatrix value, Gene Name CLK4) of 50.2 nM.
